Data from ChEMBL document CHEMBL3351937, “Potential C-terminal-domain inhibitors of heat shock protein 90 derived from a C-terminal peptide helix” (Bioorg Med Chem, 2014).
pIC50: −log10 of the molar value. Active and inactive are the calls of the source. The calls are words filed in the database; no cut-off is given here. Bridge positions count the residues as written; N and C are the ends. Square brackets hold non-standard residues; d marks the D form. Peptide text beside a SMILES is read from it. * marks the point of attachment. 5FAM = O=C1OC2(c3ccc(O)cc3Oc3cc(O)ccc32)c2ccc(C(=O)*)cc21; S5 = C=CCCC[C@](C)(N)C(=O)O

Tests used:
[1] = molecular target: T1, Heat shock protein HSP 90-beta (Homo sapiens, UniProt P08238); assay: Binding affinity to human HSP90 using FITC-labeled compound at 1 nM by fluorescence polarization assay
T1 sequence (P08238 whole entry): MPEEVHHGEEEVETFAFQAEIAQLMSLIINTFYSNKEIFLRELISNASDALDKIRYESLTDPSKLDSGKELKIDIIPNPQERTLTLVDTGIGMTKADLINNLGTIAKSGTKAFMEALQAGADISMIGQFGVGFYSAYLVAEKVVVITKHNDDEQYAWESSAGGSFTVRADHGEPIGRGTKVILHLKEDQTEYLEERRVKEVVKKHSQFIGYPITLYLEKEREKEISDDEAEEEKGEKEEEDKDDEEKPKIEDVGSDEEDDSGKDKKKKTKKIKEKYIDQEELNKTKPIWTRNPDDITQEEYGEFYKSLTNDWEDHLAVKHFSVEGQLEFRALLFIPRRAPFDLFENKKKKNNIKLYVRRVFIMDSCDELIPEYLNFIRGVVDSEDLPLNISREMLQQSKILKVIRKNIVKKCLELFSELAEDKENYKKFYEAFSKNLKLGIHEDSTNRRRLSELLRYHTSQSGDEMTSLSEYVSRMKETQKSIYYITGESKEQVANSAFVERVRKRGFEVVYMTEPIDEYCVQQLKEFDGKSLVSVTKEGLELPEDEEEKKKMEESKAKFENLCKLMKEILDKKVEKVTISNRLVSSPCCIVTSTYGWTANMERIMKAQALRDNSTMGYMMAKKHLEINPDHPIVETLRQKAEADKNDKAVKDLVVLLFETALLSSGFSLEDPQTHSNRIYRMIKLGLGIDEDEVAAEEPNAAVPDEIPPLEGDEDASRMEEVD

[2] = molecular target: T1, Heat shock protein HSP 90-beta; assay: Binding affinity to human HSP90 using FAM-labeled compound by fluorescence polarization assay
[3] = Cytotoxicity against human MDA-kb2 cells assessed as reduction in cell viability after 18 hrs by Promega cell titer-Glo assay; type: functional; details: MDA-kb2, 18 h, read-out: LC50 (the source's name)
[4] = Solubility in phosphate buffer; type: physicochemical
[5] = test system: MDA-kb2; assay: Induction of plasma membrane disruption in human MDA-kb2 cells; type: functional, cell-based
[6] = molecular target: T2, Heat shock protein HSP 90 (Oryctolagus cuniculus, UniProt P11500); assay: Inhibition of HSP90 in rabbit reticulocyte lysate after 90 mins by luciferase renaturation assay
T2 sequence (P11500 whole entry): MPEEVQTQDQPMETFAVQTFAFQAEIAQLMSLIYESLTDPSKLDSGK

[7] = molecular target: T1, Heat shock protein HSP 90-beta; assay: Inhibition of HSP90 in human MDA-kb2 cells assessed as reduction in glucocorticoid receptor-dependent luciferase expression after 18 hrs by firefly luciferase reporter gene assay; type: cell-based
[8] = molecular target: T3, Heat shock protein HSP 90 (Oryctolagus cuniculus) (UniProt P11500); assay: Inhibition of HSP90 in rabbit reticulocyte lysate at 250 uM after 90 mins by luciferase renaturation assay
T3 sequence (whole entry): T2 sequence (P11500 whole entry)

Row | inhibition [8] | Compound | CC50 [3] | solubility [4] | pIC50 [6] | pIC50 [7] | other results
1 |  | CO[C@H]1/C=C\C=C(/C)C(=O)NC2=CC(=O)C(NCCCCCCNC(=S)Nc3ccc(-c4c5ccc(=O)cc-5oc5cc(O)ccc45)c(C(=O)O)c3)=C(C[C@@H](C)C[C@H](OC)[C@H](O)[C@@H](C)/C=C(\C)[C@@H]1OC(N)=O)C2=O |  |  |  |  | Activity [1]: Active
2 |  | CC[C@H](C)[C@H](NC(=O)[C@H](CCCNC(=N)N)NC(=O)[C@H](CC(N)=O)NC(=O)[C@H](C)NC(=O)[C@H](Cc1cnc[nH]1)NC(=O)[C@@H](NC(=O)[C@H](CCC(N)=O)NC(=O)[C@@H]1CCCN1C(=O)[C@H](CC(=O)O)NC(=O)c1ccc2c(c1)C(=O)OC21c2ccc(O)cc2Oc2cc(O)ccc21)[C@@H](C)O)C(=O)N[C@@H](Cc1c[nH]c2ccccc12)C(=O)N[C@@H](CCCNC(=N)N)C(=O)N[C@@H](CCSC)C(=O)N[C@H](C(=O)N[C@@H](CCCCN)C(=O)N[C@@H](CC(C)C)C(=O)N[C@@H](Cc1c[nH]c2ccccc12)C(=O)N[C@@H](CC(C)C)C(=O)N[C@@H](CC(=O)O)C(N)=O)[C@@H](C)CC (5FAM-DPQTHANRIWRMIKLWLD-NH2) |  |  |  |  | Activity [2]: inactive
3 |  | CC[C@H](C)[C@H](NC(=O)[C@H](CCCNC(=N)N)NC(=O)[C@H](CC(N)=O)NC(=O)[C@H](C)NC(=O)[C@H](Cc1cnc[nH]1)NC(=O)[C@@H](NC(=O)[C@H](CCC(N)=O)NC(=O)[C@@H]1CCCN1C(=O)[C@H](CC(=O)O)NC(C)=O)[C@@H](C)O)C(=O)N[C@@H](Cc1c[nH]c2ccccc12)C(=O)N[C@@H](CCCNC(=N)N)C(=O)N[C@@H](CCSC)C(=O)N[C@H](C(=O)N[C@H]1CCCCNC(=O)C[C@@H](C(N)=O)NC(=O)[C@H](CC(C)C)NC(=O)[C@H](Cc2c[nH]c3ccccc23)NC(=O)[C@H](CC(C)C)NC1=O)[C@@H](C)CC (Ac-DPQTHANRIWRMIKLWLD-NH2; lactam 14-18) | 1.86 µM | ≥ 100 µM | 5.39 | 6.14 | Activity [5]: Active
4 |  | CC[C@H](C)[C@H](NC(=O)[C@H](CCCNC(=N)N)NC(=O)[C@H](CC(N)=O)NC(=O)[C@H](C)NC(=O)[C@H](Cc1cnc[nH]1)NC(=O)[C@@H](NC(=O)[C@H](CCC(N)=O)NC(=O)[C@@H]1CCCN1C(=O)[C@H](CC(=O)O)NC(C)=O)[C@@H](C)O)C(=O)N[C@@H](Cc1ccc(O)cc1)C(=O)N[C@@H](CCCNC(=N)N)C(=O)N[C@H]1CCCCNC(=O)C[C@@H](C(=O)N[C@@H](CC(C)C)C(=O)NCC(N)=O)NC(=O)[C@H](CC(C)C)NC(=O)[C@H](CCCCN)NC(=O)[C@H]([C@@H](C)CC)NC1=O (Ac-DPQTHANRIYRKIKLDLG-NH2; lactam 12-16) | > 67 µM | ≥ 100 µM | 3.86 | < 4.17 | 
5 |  | CC[C@H](C)[C@H](NC(=O)[C@H](CCCNC(=N)N)NC(=O)[C@H](CC(N)=O)NC(=O)[C@H](C)NC(=O)[C@H](Cc1cnc[nH]1)NC(=O)[C@@H](NC(=O)[C@H](CCC(N)=O)NC(=O)[C@@H]1CCCN1C(=O)[C@H](CC(=O)O)NC(C)=O)[C@@H](C)O)C(=O)N[C@@H](Cc1ccc(O)cc1)C(=O)N[C@@H](CCCNC(=N)N)C(=O)N[C@@H](CCSC)C(=O)N[C@H](C(=O)N[C@H]1CCCCNC(=O)C[C@@H](C(=O)O)NC(=O)[C@H](CC(C)C)NC(=O)CNC(=O)[C@H](CC(C)C)NC1=O)[C@@H](C)CC (Ac-DPQTHANRIYRMIKLGLD-OH; lactam 14-18) | 97 µM | ≥ 100 µM | 4.43 | 3.92 | 
6 |  | CC[C@H](C)[C@H](NC(=O)[C@H](CCCNC(=N)N)NC(=O)[C@H](CC(N)=O)NC(=O)[C@H](C)NC(=O)[C@H](Cc1cnc[nH]1)NC(=O)[C@@H](NC(=O)[C@H](CCC(N)=O)NC(=O)[C@@H]1CCCN1C(=O)[C@H](CC(=O)O)NC(C)=O)[C@@H](C)O)C(=O)N[C@@H](Cc1ccc(O)cc1)C(=O)N[C@@H](CCCNC(=N)N)C(=O)N[C@@H](CCSC)C(=O)N[C@H](C(=O)N[C@H]1CCCCNC(=O)C[C@@H](C(N)=O)NC(=O)[C@H](CC(C)C)NC(=O)[C@H](Cc2c[nH]c3ccccc23)NC(=O)[C@H](CC(C)C)NC1=O)[C@@H](C)CC (Ac-DPQTHANRIYRMIKLWLD-NH2; lactam 14-18) | > 27 µM | ≥ 100 µM | 5.07 | < 4.57 | 
7 |  | C=CCCC[C@](C)(NC(=O)[C@H](CC(C)C)NC(=O)[C@H](CCCCN)NC(=O)[C@@H](NC(=O)[C@](C)(CCCC=C)NC(=O)[C@H](CCCNC(=N)N)NC(=O)[C@H](Cc1ccc(O)cc1)NC(=O)[C@@H](NC(=O)[C@H](CCCNC(=N)N)NC(=O)[C@H](CC(N)=O)NC(=O)[C@H](C)NC(=O)[C@H](Cc1cnc[nH]1)NC(=O)[C@@H](NC(=O)[C@H](CCC(N)=O)NC(=O)[C@@H]1CCCN1C(=O)[C@H](CC(=O)O)NC(C)=O)[C@@H](C)O)[C@@H](C)CC)[C@@H](C)CC)C(=O)N[C@@H](CC(C)C)C(=O)NCC(N)=O (Ac-DPQTHANRIYR[S5]IKL[S5]LG-NH2) | 19.1 µM | ≥ 100 µM |  |  | 
8 |  | CC[C@H](C)[C@H](NC(=O)[C@H](CCCNC(=N)N)NC(=O)[C@H](CC(N)=O)NC(=O)[C@H](C)NC(=O)[C@H](Cc1cnc[nH]1)NC(=O)[C@@H](NC(=O)[C@H](CCC(N)=O)NC(=O)[C@@H]1CCCN1C(=O)[C@H](CC(=O)O)NC(C)=O)[C@@H](C)O)C(=O)N[C@@H](Cc1ccc(O)cc1)C(=O)N[C@@H](CCCNC(=N)N)C(=O)N[C@@]1(C)CCC/C=C/CCC[C@@](C)(C(=O)N[C@@H](CC(C)C)C(=O)NCC(N)=O)NC(=O)[C@H](CC(C)C)NC(=O)[C@H](CCCCN)NC(=O)[C@H]([C@@H](C)CC)NC1=O (Ac-DPQTHANRIYR[S5]IKL[S5]LG-NH2; staple (E) 12-16) | 26.6 µM | ≥ 100 µM | 4.42 | 4.73 | 
9 |  | CSCC[C@@H]1NC(=O)[C@H](CCCNC(=N)N)NC(=O)[C@H](Cc2ccc(O)cc2)NC(=O)[C@@H](NC(=O)[C@H](CCCNC(=N)N)NC(=O)[C@H](CC(N)=O)NC(=O)[C@H](C)NC(=O)[C@H](Cc2cnc[nH]2)NC(=O)[C@@H](NC(=O)[C@H](CCC(N)=O)NC(=O)[C@@H]2CCCN2C(=O)[C@H](CC(=O)O)NC(C)=O)[C@@H](C)O)CCCCNC(=O)C[C@@H](C(=O)N[C@@H](CCCCN)C(=O)N[C@@H](CC(C)C)C(=O)NCC(=O)N[C@@H](CC(C)C)C(=O)NCC(N)=O)NC1=O (Ac-DPQTHANRKYRMDKLGLG-NH2; lactam 9-13) | > 120 µM | ≥ 100 µM | 3.77 | < 3.92 | 
10 |  | CO[C@H]1[C@H](OC(=O)c2ccc(C)[nH]2)[C@H](O)[C@@H](Oc2ccc3c(O)c(NC(=O)c4c[nH]c(C(=O)Nc5c(O)c6ccc(O[C@H]7OC(C)(C)[C@@H](OC)[C@H](OC(=O)c8ccc(C)[nH]8)[C@@H]7O)c(C)c6oc5=O)c4C)c(=O)oc3c2C)OC1(C)C [COUMERMYCIN A1] | 19.1 µM |  | 4.55 | 4.82 | 
11 |  | COC1=C2C[C@@H](C)C[C@H](OC)[C@H](O)[C@@H](C)/C=C(\C)[C@H](OC(N)=O)[C@@H](OC)/C=C\C=C(/C)C(=O)NC(=CC1=O)C2=O [GELDANAMYCIN] | > 2 µM |  |  |  | 
12 | Active | Ac-DPFTHANRIYRMIKLGLG-NH2 |  |  |  |  | 
13 | Active | Ac-DPQTFANRIYRMIKLGLG-NH2 |  |  |  |  | 
14 | Active | Ac-DPQTHANRIWRMIKLGLG-NH2 |  |  |  |  | 
15 | Active | Ac-DPQTHANRIYRLIKLGLG-NH2 |  |  |  |  | 
16 | Active | Ac-DPQTHANRIYRMIKLGNG-NH2 |  |  |  |  | 
17 |  | Ac-DPQTHANRIYRMIKLWLG-NH2 | 18.9 µM | ≥ 100 µM |  |  | Activity [5]: Active
18 | inactive | Ac-FQAEIAQLMSLIINTFY-NH2 |  |  |  |  | 

Row | Compound | inhibition [8] | CC50 [3] | solubility [4] | pIC50 [6] | pIC50 [7] | other results
19 | CO[C@@H]1[C@@H](OC(N)=O)[C@@H](O)[C@H](Oc2ccc3c(O)c(NC(=O)c4ccc(O)c(CC=C(C)C)c4)c(=O)oc3c2C)OC1(C)C [NOVOBIOCIN] | Active | 690 µM |  |  |  | 
20 | Ac-DPQTHANRIYRMIKLGLG-NH2 | Active | > 160 µM | ≥ 100 µM | 3.63 | < 3.80 | 
21 | Ac-DPQTHANRIYRMIKLLLG-NH2 | Active | 22.9 µM | ≥ 100 µM |  | 4.73 | 
